According to patent US10023570B2 (Array BioPharma, Inc., priority 2015, dated 2018):
Where a name gives a salt, the structure may show the parent alone.

Target: N-terminal GST tagged recombinant human RET cytoplasmic domain (aa 658-end), wild type RET kinase (Homo sapiens (Human), UniProt P07949)
Assay: RET Enzyme Assay (HTRF KinEASE-TK), wild type RET
Type: biochemical
Settings: not given

N-terminal GST tagged recombinant human RET cytoplasmic domain (aa 658-end), wild type RET kinase, sequence (P07949 658-1114): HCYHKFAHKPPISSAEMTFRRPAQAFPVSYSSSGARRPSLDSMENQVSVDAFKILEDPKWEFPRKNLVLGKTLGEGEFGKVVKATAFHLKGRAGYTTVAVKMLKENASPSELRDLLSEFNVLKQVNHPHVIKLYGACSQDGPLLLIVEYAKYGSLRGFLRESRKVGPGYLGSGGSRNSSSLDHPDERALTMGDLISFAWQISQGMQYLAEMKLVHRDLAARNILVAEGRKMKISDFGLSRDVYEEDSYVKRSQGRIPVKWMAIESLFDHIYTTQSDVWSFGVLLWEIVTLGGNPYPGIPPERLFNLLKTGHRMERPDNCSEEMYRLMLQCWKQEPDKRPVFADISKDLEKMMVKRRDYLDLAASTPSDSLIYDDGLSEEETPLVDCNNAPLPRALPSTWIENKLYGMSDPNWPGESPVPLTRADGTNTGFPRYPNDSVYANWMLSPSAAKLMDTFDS

| Structure (SMILES) | IC50 [nM] |
| --- | --- |
| Cn1cc(-c2cc(-c3ccc(N4CCNCC4)nc3)c3ccnn3c2)cn1 [Example 312, 6-(1-methyl-1H-pyrazol-4-yl)-4-(6-(piperazin-1-yl)pyridin-3-yl)pyrazolo[1,5-a]pyridine dihydrochloride] | 607 |

Same assay, conditions: wild type RET, 1 mM ATP

| Structure (SMILES) | IC50 [nM] |
| --- | --- |
| Cc1cc(-c2cc(-c3cnn(C)c3)cn3ncc(C#N)c23)cnc1N1CCN(C(=O)CC(C)(C)C)CC1 [Example 279, 4-(6-(4-(3,3-dimethylbutanoyl)piperazin-1-yl)-5-methylpyridin-3-yl)-6-(1-methyl-1H-pyrazol-4-yl)pyrazolo[1,5-a]pyridine-3-carbonitrile] | 318 |
| Cc1cc(-c2cc(-c3cnn(C)c3)cn3ncc(C#N)c23)cnc1N1CCN(C(=O)OC(C)(C)C)CC1 [Example 275, tert-Butyl 4-(5-(3-cyano-6-(1-methyl-1H-pyrazol-4-yl)pyrazolo[1,5-a]pyridin-4-yl)-3-methylpyridin-2-yl)piperazine-1-carboxylate] | 1500 |
| Cn1cc(-c2cc(-c3ccc(N4CCN(C(=O)OC(C)(C)C)CC4)nc3)c3c(Br)cnn3c2)cn1 [Example 649, tert-butyl 4-(5-(3-bromo-6-(1-methyl-1H-pyrazol-4-yl)pyrazolo[1,5-a]pyridin-4-yl)pyridin-2-yl)piperazine-1-carboxylate] | 656 |
| Cc1cc(-c2cc(-c3cnn(C)c3)cn3ncc(C#N)c23)cnc1N1CCNCC1 [Example 276, 6-(1-methyl-1H-pyrazol-4-yl)-4-(5-methyl-6-(piperazin-1-yl)pyridin-3-yl)pyrazolo[1,5-a]pyridine-3-carbonitrile dihydrochloride] | 395 |
| Cc1cnn2cc(-c3cnn(C)c3)cc(-c3ccc(N4CCN(C(=O)OC(C)(C)C)CC4)nc3)c12 [Example 650, tert-butyl 4-(5-(3-methyl-6-(1-methyl-1H-pyrazol-4-yl)pyrazolo[1,5-a]pyridin-4-yl)pyridin-2-yl)piperazine-1-carboxylate] | 345 |

Now from value to molecule:

| IC50 [nM] | Structure (SMILES) |
| --- | --- |
| 334 | CC(C)NC(=O)[C@@H]1CCCN(c2ccc(-c3cc(-c4cnn(C)c4)cn4ncc(C#N)c34)cn2)C1 [Example 229, (R)-1-(5-(3-cyano-6-(1-methyl-1H-pyrazol-4-yl)pyrazolo[1,5-a]pyridin-4-yl)pyridin-2-yl)-N-isopropylpiperidine-3-carboxamide] |
| 242 | CC(C)NC(=O)[C@H]1CCCN(c2ccc(-c3cc(-c4cnn(C)c4)cn4ncc(C#N)c34)cn2)C1 [Example 230, (S)-1-(5-(3-cyano-6-(1-methyl-1H-pyrazol-4-yl)pyrazolo[1,5-a]pyridin-4-yl)pyridin-2-yl)-N-isopropylpiperidine-3-carboxamide] |
| 208 | Cc1cnn2cc(-c3cnn(C)c3)cc(-c3ccc(N4CCNCC4)nc3)c12 [Example 651, 3-methyl-6-(1-methyl-1H-pyrazol-4-yl)-4-(6-(piperazin-1-yl)pyridin-3-yl)pyrazolo[1,5-a]pyridine] |

Target: human KDR protein in HEK-293 cells (Homo sapiens (Human), UniProt P35968)
Assay: KDR Cell Assay (phospho-KDR in HEK-293 cells expressing inducible KDR)
Type: cell-based
Settings: pKDR Cell HEK 10% FBS IC50, HEK-293 cells expressing inducible KDR, VEGF stimulated
How it was run: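 HEK-293 cells with inducible human KDR were treated with compound for 1 h in DMEM (0.25% DMSO final), then lysed. Phospho-KDR was quantified by Meso Scale immunoassay, expressed as percent of control, and IC50 taken where a 4-parameter logistic fit crossed 50 POC.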

human KDR protein in HEK-293 cells, sequence (P35968 20-1356): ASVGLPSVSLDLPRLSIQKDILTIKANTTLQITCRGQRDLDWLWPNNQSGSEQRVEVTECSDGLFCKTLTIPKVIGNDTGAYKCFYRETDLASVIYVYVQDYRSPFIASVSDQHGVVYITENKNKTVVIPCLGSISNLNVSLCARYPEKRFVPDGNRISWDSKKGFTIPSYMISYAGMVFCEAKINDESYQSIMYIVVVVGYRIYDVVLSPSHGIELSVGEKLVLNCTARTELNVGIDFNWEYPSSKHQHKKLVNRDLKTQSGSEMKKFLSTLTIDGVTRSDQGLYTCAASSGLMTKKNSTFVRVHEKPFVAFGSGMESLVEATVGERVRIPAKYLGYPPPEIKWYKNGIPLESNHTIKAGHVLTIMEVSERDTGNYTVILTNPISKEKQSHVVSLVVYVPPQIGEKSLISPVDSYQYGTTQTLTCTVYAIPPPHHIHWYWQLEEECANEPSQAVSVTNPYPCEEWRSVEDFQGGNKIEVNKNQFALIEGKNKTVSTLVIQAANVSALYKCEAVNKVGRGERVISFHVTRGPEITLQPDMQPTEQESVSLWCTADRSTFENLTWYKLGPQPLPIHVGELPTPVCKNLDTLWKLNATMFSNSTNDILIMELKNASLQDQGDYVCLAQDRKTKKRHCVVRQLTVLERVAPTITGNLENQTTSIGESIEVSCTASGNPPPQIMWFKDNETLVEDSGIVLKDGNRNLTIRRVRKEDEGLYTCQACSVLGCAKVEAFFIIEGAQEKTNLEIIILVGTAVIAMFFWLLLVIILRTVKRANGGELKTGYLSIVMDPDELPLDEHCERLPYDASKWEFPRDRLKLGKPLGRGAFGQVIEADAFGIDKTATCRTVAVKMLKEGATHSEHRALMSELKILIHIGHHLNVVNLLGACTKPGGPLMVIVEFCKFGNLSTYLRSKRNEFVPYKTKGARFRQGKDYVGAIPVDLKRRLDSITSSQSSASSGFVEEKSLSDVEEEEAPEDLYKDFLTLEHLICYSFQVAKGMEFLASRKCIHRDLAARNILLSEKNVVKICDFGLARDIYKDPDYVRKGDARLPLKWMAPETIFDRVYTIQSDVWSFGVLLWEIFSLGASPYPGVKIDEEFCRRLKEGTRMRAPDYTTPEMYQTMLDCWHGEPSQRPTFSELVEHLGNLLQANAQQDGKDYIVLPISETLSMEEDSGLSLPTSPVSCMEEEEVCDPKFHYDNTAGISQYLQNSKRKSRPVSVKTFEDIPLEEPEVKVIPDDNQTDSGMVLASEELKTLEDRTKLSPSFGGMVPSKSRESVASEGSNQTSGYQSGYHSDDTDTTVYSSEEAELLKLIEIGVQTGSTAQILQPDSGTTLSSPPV

| Structure (SMILES) | IC50 [nM] |
| --- | --- |
| Cn1cc(-c2cc(-c3ccc(N4CCN(Cc5ccccc5F)CC4)nc3)c3c(C#N)cnn3c2)cn1 [Example 427, 4-(6-(4-(2-fluorobenzyl)piperazin-1-yl)pyridin-3-yl)-6-(1-methyl-1H-pyrazol-4-yl)pyrazolo[1,5-a]pyridine-3-carbonitrile] | 937 |
| Cn1cc(-c2cc(-c3ccc(N4CC5(CCCN5C(=O)OCc5ccccc5)C4)nc3)c3c(C#N)cnn3c2)cn1 [Example 525, benzyl 2-(5-(3-cyano-6-(1-methyl-1H-pyrazol-4-yl)pyrazolo[1,5-a]pyridin-4-yl)pyridin-2-yl)-2,5-diazaspiro[3.4]octane-5-carboxylate 2,2,2-trifluoroacetate] | 1580 |
| Cn1cc(-c2cc(-c3ccc(N4CC5CC(C4)N5Cc4ccccc4)nc3)c3c(C#N)cnn3c2)cn1 [Example 489, 4-(6-(6-benzyl-3,6-diazabicyclo[3.1.1]heptan-3-yl)pyridin-3-yl)-6-(1-methyl-1H-pyrazol-4-yl)pyrazolo[1,5-a]pyridine-3-carbonitrile] | 19.5 |
| Cn1cc(-c2cc(-c3ccc(N4CCCC5(CCCN5)C4)nc3)c3c(C#N)cnn3c2)cn1 (stereo not shown) [Example 542, 4-(6-(1,7-diazaspiro[4.5]decan-7-yl)pyridin-3-yl)-6-(1-methyl-1H-pyrazol-4-yl)pyrazolo[1,5-a]pyridine-3-carbonitrile dihydrochloride] | 222 |

Second part, the molecule after the results:

| IC50 [nM] | Structure (SMILES) |
| --- | --- |
| 284 | Cn1cc(-c2cc(-c3ccc(N4CCC5(CC4)CCN5C(=O)OC(C)(C)C)nc3)c3c(C#N)cnn3c2)cn1 [Example 515, tert-butyl 7-(5-(3-cyano-6-(1-methyl-1H-pyrazol-4-yl)pyrazolo[1,5-a]pyridin-4-yl)pyridin-2-yl)-1,7-diazaspiro[3.5]nonane-1-carboxylate] |
| 1340 | Cn1cnc(CN2CCN(c3ccc(-c4cc(-c5cnn(C)c5)cn5ncc(C#N)c45)cn3)CC2)c1 [Example 449, 4-(6-(4-((1-methyl-1H-imidazol-4-yl)methyl)piperazin-1-yl)pyridin-3-yl)-6-(1-methyl-1H-pyrazol-4-yl)pyrazolo[1,5-a]pyridine-3-carbonitrile] |
| ≥ 5000 | Cn1cc(-c2cc(-c3ccc(N4CCN(CC5CC(F)(F)C5)CC4)nc3)c3c(C#N)cnn3c2)cn1 [Example 459, 4-(6-(4-((3,3-difluorocyclobutyl)methyl)piperazin-l-yl)pyridin-3-yl)-6-(1-methyl-1H-pyrazol-4-yl)pyrazolo[1,5-a]pyridine-3-carbonitrile] |

Same assay, conditions: pKDR Cell HEK 10% FBS IC50, HEK-293 cells expressing inducible KDR, VEGF stimulated, 10% FBS

| Structure (SMILES) | IC50 [nM] |
| --- | --- |
| Cn1cc(-c2cc(-c3ccc(N4CCN(C(=O)C[C@H](NC(=O)OC(C)(C)C)c5ccccc5)CC4)nc3)c3c(C#N)cnn3c2)cn1 [Example 17, (S)-tert-butyl (3-(4-(5-(3-cyano-6-(1-methyl-1H-pyrazol-4-yl)pyrazolo[1,5-a]pyridin-4-yl)pyridin-2-yl)piperazin-1-yl)-3-oxo-1-phenylpropyl)carbamate] | 83.4 |
| Cn1cc(-c2cc(-c3ccc(N4[C@@H]5CC[C@H]4C[C@@H](N)C5)nc3)c3c(C#N)cnn3c2)cn1 [Example 195, 4-(6-((1R,3r,5S)-3-amino-8-azabicyclo[3.2.1]octan-8-yl)pyridin-3-yl)-6-(1-methyl-1H-pyrazol-4-yl)pyrazolo[1,5-a]pyridine-3-carbonitrile dihydrochloride] | 247 |
| CO[C@H]1C[C@H]2CC[C@@H](C1)N2c1ccc(-c2cc(-c3cnn(C)c3)cn3ncc(C#N)c23)cn1 [Example 200, 4-(6-((1R,3r,5S)-3-methoxy-8-azabicyclo[3.2.1]octan-8-yl)pyridin-3-yl)-6-(1-methyl-1H-pyrazol-4-yl)pyrazolo[1,5-a]pyridine-3-carbonitrile] | 463 |
| Cn1cc(-c2cc(-c3ccc(N4CCN(C(=O)C5(c6ccccc6)CCCC5)CC4)nc3)c3c(C#N)cnn3c2)cn1 [Example 24, 6-(1-methyl-1H-pyrazol-4-yl)-4-(6-(4-(1-phenylcyclopentanecarbonyl)piperazin-1-yl)pyridin-3-yl)pyrazolo[1,5-a]pyridine-3-carbonitrile] | 960 |
| Cn1cc(-c2cc(-c3ccc(N4CCN(C(=O)C(c5ccccc5)N5CCOCC5)CC4)nc3)c3c(C#N)cnn3c2)cn1 (stereo not shown) [Example 363, 6-(1-methyl-1H-pyrazol-4-yl)-4-(6-(4-(2-morpholino-2-phenylacetyl)piperazin-1-yl)pyridin-3-yl)pyrazolo[1,5-a]pyridine-3-carbonitrile bis(2,2,2-trifluoroacetate)] | 2640 |
| Cn1cc(-c2cc(-c3ccc(N4CCN(C(=O)c5cnccn5)CC4)nc3)c3c(C#N)cnn3c2)cn1 [Example 38, 6-(1-methyl-1H-pyrazol-4-yl)-4-(6-(4-(pyrazine-2-carbonyl)piperazin-1-yl)pyridin-3-yl)pyrazolo[1,5-a]pyridine-3-carbonitrile 2,2,2-trifluoroacetate] | 396 |

The next lines start with the values.

| IC50 [nM] | Structure (SMILES) |
| --- | --- |
| 751 | CO[C@H]1CCN(C(=O)N2CCN(c3ccc(-c4cc(-c5cnn(C)c5)cn5ncc(C#N)c45)cn3)CC2)C1 [Example 97, (S)-4-(6-(4-(3-methoxypyrrolidine-1-carbonyl)piperazin-1-yl)pyridin-3-yl)-6-(1-methyl-1H-pyrazol-4-yl)pyrazolo[1,5-a]pyridine-3-carbonitrile] |
| 616 | Cn1cc(-c2cc(-c3ccc(N4CCN(C(=O)N5CCCC5)CC4)nc3)c3c(C#N)cnn3c2)cn1 [Example 125, 6-(1-methyl-1H-pyrazol-4-yl)-4-(6-(4-(pyrrolidine-1-carbonyl)piperazin-1-yl)pyridin-3-yl)pyrazolo[1,5-a]pyridine-3-carbonitrile] |
| 1840 | CO[C@H]1C[C@@H](NC(=O)C2CCN(c3ccc(-c4cc(-c5cnn(C)c5)cn5ncc(C#N)c45)cn3)CC2)C1 [Example 241, 1-(5-(3-cyano-6-(1-methyl-1H-pyrazol-4-yl)pyrazolo[1,5-a]pyridin-4-yl)pyridin-2-yl)-N-((1s,3s)-3-methoxycyclobutyl) piperidine-4-carboxamide] |
| 555 | Cn1cc(-c2cc(-c3ccc(N4CCOCC4)nc3)c3c(C#N)cnn3c2)cn1 [Example 224, 6-(1-methyl-1H-pyrazol-4-yl)-4-(6-morpholinopyridin-3-yl)pyrazolo[1,5-a]pyridine-3-carbonitrile] |
| 1710 | COCC1(C(=O)N2CCN(c3ccc(-c4cc(-c5cnn(C)c5)cn5ncc(C#N)c45)cn3)CC2)CC1 [Example 353, 4-(6-(4-(1-(methoxymethyl)cyclopropanecarbonyl)piperazin-1-yl)pyridin-3-yl)-6-(1-methyl-1H-pyrazol-4-yl)pyrazolo[1,5-a]pyridine-3-carbonitrile] |
| 376 | Cn1cc(-c2cc(-c3ccc(N4CCN(C(=O)[C@@H]5CCCO5)CC4)nc3)c3c(C#N)cnn3c2)cn1 [Example 60, (S)-6-(1-methyl-1H-pyrazol-4-yl)-4-(6-(4-(tetrahydrofuran-2-carbonyl)piperazin-1-yl)pyridin-3-yl)pyrazolo[1,5-a]pyridine-3-carbonitrile] |
